In this assay the target is VHL (Homo sapiens, UniProt P40337). The assay is described as follows: Fluorescence polarization competition assay (HIF-1α peptide FP displacement).

Consider 50 compounds from US20190127359A1, “Compounds & Methods for the Enhanced Degradation of Targeted Proteins & Other Polypeptides by an E3 Ubiquitin Ligase” (YALE UNIVERSITY, priority 2012, published 2019).

Like-named read-outs stand apart in the source and are kept apart here. Bounds are passed on as bounds.

Usually IC50 stands for the concentration that gives 50% inhibition.

With `O=C(NCc1ccc(Cl)cc1)[C@@H]1C[C@@H](O)CN1C(=O)c1ccc([N+](=O)[O-])cc1` [VL067], the IC50 (IC50 (μM) 10% DMSO, 10% DMSO) was determined as 70.7 µM.
Turning to `Cc1cc(CC(=O)N2C[C@H](O)C[C@H]2C(=O)OCc2ccc(Cl)cc2)on1` [VL144], the concentration for half-maximal inhibition (IC50) reads like this: (IC50 (μM) 1% DMSO, 1% DMSO) over 1000 µM; (IC50 (μM) 10% DMSO, 10% DMSO) over 1000 µM.
Take `Cc1cc(CC(=O)N2C[C@H](O)C[C@H]2C(=O)N[C@@H](C)c2ccc([N+](=O)[O-])cc2)on1` [VL049]: the IC50 (IC50 (μM) 10% DMSO, 10% DMSO) was determined as 15.1 µM.
Same read-out and setting: with `Cc1cc(CC(=O)N2C[C@H](O)C[C@H]2C(=O)N[C@H](CO)c2ccc(Cl)cc2)on1` [VL162] the figure was 235 µM.
Regarding `Cc1cc(CC(=O)N2C[C@H](O)C[C@H]2C(=O)NCc2cccc(-c3scnc3C)c2)on1` [VL115], the IC50 by setting is: (IC50 (μM) 1% DMSO, 1% DMSO) 19 µM; (IC50 (μM) 10% DMSO, 10% DMSO) 17 µM.
Regarding `CCCNC(=O)OC[C@H](NC(=O)[C@@H]1C[C@@H](O)CN1C(=O)Cc1cc(C)no1)c1ccc(Cl)cc1` [VL164], the concentration for half-maximal inhibition (IC50) came out at 40 µM (IC50 (μM) 1% DMSO, 1% DMSO) and 72.9 µM (IC50 (μM) 10% DMSO, 10% DMSO).
On to `Cc1cc(CC(=O)N2C[C@H](O)C[C@H]2C(=O)NCc2ccc(-c3cccnc3)cc2)on1` [VL159], for which the IC50 reads like this: (IC50 (μM) 1% DMSO, 1% DMSO) 54 µM; (IC50 (μM) 10% DMSO, 10% DMSO) 66.9 µM.
`O=C(NCc1ccc(Cl)cc1)[C@@H]1C[C@@H](O)CN1C(=O)c1cc(C2CC2)on1` [VL061]: the IC50 (IC50 (μM) 10% DMSO, 10% DMSO) amounted to 419 µM.
Take `Cc1cc(CC(=O)N2C[C@H](O)C[C@H]2C(=O)NCc2ccccc2)on1` [VL034]: under “read-out: IC50 (μM) 1% DMSO, 1% DMSO”, the IC50 was 130 µM.
For `Cc1c(N)cccc1C(=O)N1C[C@H](O)C[C@H]1C(=O)NCc1ccc(Cl)cc1` [VL071], for the setting “IC50 (μM) 10% DMSO, 10% DMSO”, the 50% inhibitory concentration (IC50) is 10.4 µM.
On the same count and under the same terms, as for `CS(=O)(=O)c1ccc(CC(=O)N2C[C@H](O)C[C@H]2C(=O)NCc2ccc(Cl)cc2)cc1` [VL058], the figure is over 1000 µM; as for `O=C(NCc1ccc(Cl)cc1)[C@@H]1C[C@@H](O)CN1C(=O)Cc1cccnc1` [VL105], over 1000 µM.
As to `O=C(NCc1ccc(Cl)cc1)[C@@H]1C[C@@H](O)CN1C(=O)c1cccc2[nH]cnc12` [VL125], the IC50 runs as follows: (IC50 (μM) 1% DMSO, 1% DMSO) 568 µM; (IC50 (μM) 10% DMSO, 10% DMSO) 790 µM.
`Cc1cc(CC(=O)N2C[C@H](O)C[C@H]2C(=O)NCc2cccc(C(F)(F)F)c2)on1` [VL022]: the IC50 (IC50 (μM) 10% DMSO, 10% DMSO) was about 870 µM.
The same measure, in the same setting: with `COC(=O)Cc1cn(-c2ccccc2C(=O)N2C[C@H](O)C[C@H]2C(=O)NCc2ccc(Cl)cc2)nn1` [VL153] the figure was 978 µM.
Take `Cc1cc(CC(=O)N2C[C@H](O)C[C@H]2C(=O)NCCN2CCOCC2)on1` [VL015]: the half-maximal inhibitory concentration (IC50) (IC50 (μM) 10% DMSO, 10% DMSO) was over 1000 µM.
Still for that read-out and setting: as for `Cc1cc(CC(=O)N2C[C@H](O)C[C@H]2C(=O)NCc2ccccn2)on1` [VL019], the figure is 451 µM; as for `O=C(NCc1ccc(Cl)cc1)[C@@H]1C[C@@H](O)CN1C(=O)c1ccccn1` [VL098], 244 µM.
Where the note is “IC50 (μM) 10% DMSO, 10% DMSO”, `N#Cc1cc(Br)cc(C(=O)N2C[C@H](O)C[C@H]2C(=O)NCc2ccc(Cl)cc2)c1` [VL059] registered an IC50 of 205 µM.
`O=C(NCc1ccc(Cl)cc1)[C@@H]1C[C@@H](O)CN1C(=O)c1cccc2[nH]ccc12` [VL124]: the IC50 was 670 µM (IC50 (μM) 1% DMSO, 1% DMSO) and 990 µM (IC50 (μM) 10% DMSO, 10% DMSO).
Regarding `O=C(NCc1ccc(Cl)cc1)[C@@H]1C[C@@H](O)CN1C(=O)c1cccnc1` [VL097], where the note is “IC50 (μM) 10% DMSO, 10% DMSO”, the IC50 came out at 49.4 µM.
On to `CCCNC(=O)OC[C@@H](NC(=O)[C@@H]1C[C@@H](O)CN1C(=O)Cc1cc(C)no1)c1ccc(Cl)cc1` [VL163], for which the IC50 was 610 µM (IC50 (μM) 1% DMSO, 1% DMSO) and 508 µM (IC50 (μM) 10% DMSO, 10% DMSO).
On the same counts, the results for `O=C(NCc1ccc(Cl)cc1)[C@@H]1C[C@@H](O)CN1C(=O)Cn1ccnc1` [VL156] are over 1000 µM and over 1000 µM.
As to `O=C(NCc1ccc(Cl)cc1)[C@@H]1C[C@@H](O)CN1C(=O)c1ccnc(Cl)c1` [VL099], the IC50 (IC50 (μM) 10% DMSO, 10% DMSO) was 39.6 µM.
For `O=C(NCc1ccc(Cl)cc1)[C@@H]1C[C@@H](O)CN1C(=O)c1cccc2cnccc12` [VL128], the IC50 reads like this: (IC50 (μM) 1% DMSO, 1% DMSO) 224 µM; (IC50 (μM) 10% DMSO, 10% DMSO) 57.9 µM.
On to `Cc1cc(CC(=O)N2C[C@H](O)C[C@H]2C(=O)NCc2ccc(N3CCCCC3)cc2)on1` [VL110], for which the IC50 (IC50 (μM) 10% DMSO, 10% DMSO) was determined as 138 µM.
As to `Cc1cc(CC(=O)N2C[C@H](O)C[C@H]2C(=O)NCc2ccc(C)o2)on1` [VL044], for the setting “IC50 (μM) 10% DMSO, 10% DMSO”, the IC50 was determined as 286 µM.
As to `Cn1cc(CC(=O)N2C[C@H](O)C[C@H]2C(=O)NCc2ccc(Cl)cc2)cn1` [VL157], the IC50 is, setting by setting: (IC50 (μM) 1% DMSO, 1% DMSO) 360 µM; (IC50 (μM) 10% DMSO, 10% DMSO) 372 µM.
The like results for `Cc1cc(CC(=O)N2C[C@H](O)C[C@H]2C(=O)NCc2ccc(-c3c[nH]nn3)cc2)on1` [VL140] were, in that order, 17 µM and 10.3 µM.
Where the note is “IC50 (μM) 10% DMSO, 10% DMSO”, `O=C(Nc1ccc(Br)cc1F)[C@@H]1C[C@@H](O)CN1S(=O)(=O)c1ccc2ccccc2c1` [VL001] displayed an IC50 of over 1000 µM.
On the same count and under the same terms, as for `Cc1cc(CC(=O)N2C[C@H](O)C[C@H]2C(=O)N2CCc3ccccc3C2)on1` [VL039], the figure is over 1000 µM.
The compound `Cc1cc(CC(=O)N2C[C@H](O)C[C@H]2C(=O)NCc2cccc(-c3cc[nH]c3)c2)on1` [VL134] had an IC50 (IC50 (μM) 1% DMSO, 1% DMSO) of 54 µM and an IC50 (IC50 (μM) 10% DMSO, 10% DMSO) of 48.1 µM.
As for `Cc1cc(CC(=O)N2C[C@H](O)C[C@H]2C(=O)NCc2ccncc2)on1` [VL037], under “IC50 (μM) 10% DMSO, 10% DMSO”, the IC50 was 88.8 µM.
`Cc1cc(CC(=O)N2C[C@H](O)C[C@H]2C(=O)N[C@@H](CO)c2ccc(Cl)cc2)on1` [VL161] displayed an IC50 (IC50 (μM) 1% DMSO, 1% DMSO) of 35 µM and an IC50 (IC50 (μM) 10% DMSO, 10% DMSO) of 36.4 µM.
As for `Cc1cc(CC(=O)N2C[C@H](O)C[C@H]2C(=O)NCc2ccc([N+](=O)[O-])cc2)on1` [VL048], the IC50 (IC50 (μM) 10% DMSO, 10% DMSO) is 24.8 µM.
Take `Cc1cc(CC(=O)N2C[C@H](O)C[C@H]2C(=O)N[C@@H](C)c2ccccc2)on1` [VL032]: under “IC50 (μM) 10% DMSO, 10% DMSO”, the IC50 came out at 639 µM.
On to `Cc1cc(CC(=O)N2C[C@H](O)C[C@H]2C(=O)NCc2ccc(-c3cscn3)cc2)on1` [VL154], for which the IC50 by setting is: (IC50 (μM) 1% DMSO, 1% DMSO) 77 µM; (IC50 (μM) 10% DMSO, 10% DMSO) 118 µM.
In turn, `Cc1cc(CC(=O)N2C[C@H](O)C[C@H]2C(=O)NCc2ccc(Cl)c(C(F)(F)F)c2)on1` [VL023] had an IC50 (IC50 (μM) 10% DMSO, 10% DMSO) of 589 µM.
On the same count and under the same terms, with `Cc1nc(C(=O)N2C[C@H](O)C[C@H]2C(=O)NCc2ccc(Cl)cc2)co1` [VL101] the figure was 940 µM.
On the same count and under the same terms, with `O=C(NCc1ccc(Cl)cc1)[C@@H]1C[C@@H](O)CN1C(=O)c1ccc(Cl)cc1Br` [VL081] the figure was 15.5 µM.
Still for that read-out and setting: with `Cc1cc(CC(=O)N2C[C@H](O)C[C@H]2C(=O)NCc2ccc(Br)cc2)on1` [VL029] the figure was 24.9 µM; with `N#Cc1ccc(CC(=O)N2C[C@H](O)C[C@H]2C(=O)NCc2ccc(Cl)cc2)cc1` [VL056], 939 µM.
As for `N#CCC(=O)N1C[C@H](O)C[C@H]1C(=O)NCc1ccc(Cl)cc1` [VL051], the IC50 (IC50 (μM) 10% DMSO, 10% DMSO) is over 1000 µM.
In the case of `Cc1cc(CC(=O)N2C[C@H](O)C[C@H]2C(=O)NCc2ccc(-c3ocnc3C)cc2)on1` [VL117], the IC50 runs as follows: (IC50 (μM) 1% DMSO, 1% DMSO) 13 µM; (IC50 (μM) 10% DMSO, 10% DMSO) 5 µM.
Consider `CS(=O)(=O)N1C[C@H](O)C[C@H]1C(=O)NCCc1ccc(O)cc1` [VL006], for which, where the note is “10% DMSO”, the “IC50 (μM) 10% DMSO” value is listed as “Inactive”.
Where the note is “IC50 (μM) 10% DMSO, 10% DMSO”, `COc1ccccc1N1CCN(C(=O)[C@@H]2C[C@@H](O)CN2C(=O)Cc2cc(C)no2)CC1` [VL043] returned an IC50 of over 1000 µM.
As to `O=C(NCc1ccc(Cl)cc1)[C@@H]1C[C@@H](O)CN1C(=O)c1cccc(C(F)(F)F)c1` [VL078], where the note is “IC50 (μM) 10% DMSO, 10% DMSO”, the half-inhibitory concentration (IC50) was determined as 60.2 µM.
The same measure, in the same setting: as for `NC(=O)CCC(=O)N1C[C@H](O)C[C@H]1C(=O)NCc1ccc(Cl)cc1` [VL050], the figure is 332 µM.
Still for that read-out and setting: as for `COc1cccc(C(=O)N2C[C@H](O)C[C@H]2C(=O)NCc2ccc(Cl)cc2)c1` [VL079], the figure is 26.3 µM.
On the same count and under the same terms, as for `O=C(NCc1ccc(Cl)cc1)[C@@H]1C[C@@H](O)CN1C(=O)c1ccncc1` [VL096], the figure is 32.5 µM.
